Assay results from ChEMBL document CHEMBL4715914, “Chemical validation of a druggable site on Hsp27/HSPB1 using in silico solvent mapping and biophysical methods” (Bioorg Med Chem, 2021).
One block for each molecule: values may come before it. The source made the active and inactive calls. The rule behind the calls is not given here.

Tests used:
[1] = target: Heat shock protein beta-1 (Homo sapiens, UniProt P04792); assay: Binding affinity to HSP27 (79 to 176 residues) (unknown origin) expressed in Escherichia coli BL21 (DE3) cells by HSQC NMR analysis; conditions: for Kd: read-out: Kd(app)
Sequence of Heat shock protein beta-1 (P04792 whole entry, the tested form may be a part): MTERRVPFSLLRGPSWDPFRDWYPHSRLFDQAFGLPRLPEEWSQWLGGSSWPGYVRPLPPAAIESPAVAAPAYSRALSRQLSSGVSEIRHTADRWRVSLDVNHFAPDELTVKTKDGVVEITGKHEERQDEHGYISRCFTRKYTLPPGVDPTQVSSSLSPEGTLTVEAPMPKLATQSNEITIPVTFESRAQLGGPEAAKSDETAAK

[2] = Binding affinity to HSP27 L21A mutant (79 to 176 residues) (unknown origin) expressed in Escherichia coli BL21 (DE3) cells by HSQC NMR analysis; design: species or system Homo sapiens; conditions: read-out: Kd(app)
[3] = Binding affinity to HSP27 V23A mutant (79 to 176 residues) (unknown origin) expressed in Escherichia coli BL21 (DE3) cells by HSQC NMR analysis; design: species or system Homo sapiens; conditions: read-out: Kd(app)
[4] = Binding affinity to HSP27 T61L mutant (79 to 176 residues) (unknown origin) expressed in Escherichia coli BL21 (DE3) cells by HSQC NMR analysis; design: species or system Homo sapiens; conditions: read-out: Kd(app)
[5] = Binding affinity to HSP27 H46A mutant (79 to 176 residues) (unknown origin) expressed in Escherichia coli BL21 (DE3) cells by HSQC NMR analysis; design: species or system Homo sapiens; conditions: read-out: Kd(app)
[6] = Binding affinity to HSP27 C59A mutant (79 to 176 residues) (unknown origin) expressed in Escherichia coli BL21 (DE3) cells by HSQC NMR analysis; design: species or system Homo sapiens; conditions: read-out: Kd(app)
[7] = Binding affinity to HSP27 I56A mutant (79 to 176 residues) (unknown origin) expressed in Escherichia coli BL21 (DE3) cells by HSQC NMR analysis; design: species or system Homo sapiens; conditions: read-out: Kd(app)

Structure (SMILES): O=C(Oc1ccc(F)cc1F)c1ccc([N+](=O)[O-])cc1
Kd(app) [1]: inactive

Structure (SMILES): O=[N+]([O-])c1ccc(Oc2ccc(F)cc2F)c([N+](=O)[O-])c1
Kd [2]: 42 µM | Kd [3]: 69 µM | Kd [4]: 32 µM | Kd [5]: 240 µM | Kd [6]: 67 µM | Kd [7]: 63 µM

Kd [1]: > 1000 µM
Structure (SMILES): Nc1cccnc1Oc1ccc(F)cc1F

Structure (SMILES): O=[N+]([O-])c1cccnc1Oc1ccc(I)cc1
Kd(app) [1]: inactive

Kd [1]: 177 µM
Structure (SMILES): O=[N+]([O-])c1cccnc1Oc1ccc(F)cc1F

Structure (SMILES): O=[N+]([O-])c1cc(Oc2ccc(F)cc2F)ccc1Oc1ccc(F)cc1F
Kd(app) [1]: inactive
